Here are results for 6 compounds from US4792568A, “Aryl pyrroles as useful antiallergy compounds” (Rorer Pharmaceutical Corporation, priority 1986, dated 1988).

For one test, the target named is T1, 5-lipoxygenase (Rattus norvegicus, UniProt P12527).
T1 construct: A suspension of rat neutrophils in buffer; endogenous in cells; host or cells: rat neutrophils
T1 sequence (P12527 1-673): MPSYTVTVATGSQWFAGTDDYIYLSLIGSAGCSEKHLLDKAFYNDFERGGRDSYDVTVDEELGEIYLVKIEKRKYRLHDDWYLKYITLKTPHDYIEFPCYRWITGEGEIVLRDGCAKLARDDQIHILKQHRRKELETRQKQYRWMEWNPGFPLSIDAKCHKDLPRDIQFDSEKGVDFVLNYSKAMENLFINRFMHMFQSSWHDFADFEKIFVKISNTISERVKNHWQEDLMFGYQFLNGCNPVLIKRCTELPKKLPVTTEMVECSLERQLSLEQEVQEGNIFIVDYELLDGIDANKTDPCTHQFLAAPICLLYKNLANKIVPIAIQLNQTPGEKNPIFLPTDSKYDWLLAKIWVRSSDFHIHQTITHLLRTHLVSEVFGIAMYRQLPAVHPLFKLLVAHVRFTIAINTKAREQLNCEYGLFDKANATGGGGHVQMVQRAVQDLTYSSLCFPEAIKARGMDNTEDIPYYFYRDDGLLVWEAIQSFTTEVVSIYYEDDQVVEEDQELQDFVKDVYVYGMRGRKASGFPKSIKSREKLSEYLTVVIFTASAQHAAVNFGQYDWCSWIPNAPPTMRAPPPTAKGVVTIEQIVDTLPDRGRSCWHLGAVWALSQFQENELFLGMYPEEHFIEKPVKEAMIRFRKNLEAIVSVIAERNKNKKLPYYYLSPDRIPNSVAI
Kind of test: Inhibition of 5-lipoxygenase (5-HETE formation from [14C]-arachidonic acid in rat neutrophils, Calcium Ionophore A23187). The format is cell-based. The conditions noted are these: 3 minutes at 30° C.; for IC50: net 5-HETE, read-out: concentration required for inhibition of the 5-lipoxygenase (5-LOX/I50). The method, then: The following protocol describes an assay to detect inhibitors of the lipoxygenase. Such inhibitors are believed to be capable of modulating the biosynthesis of the leukotrienes, a property believed to be useful in treating asthma and inflammatory disease states.
A suspension of rat neutrophils in buffer is incubated for 3 minutes at 30° C. with [^14 C]-arachidonic acid (AA) and Calcium Ionophore A23187. Citric acid (2M) is used to quench the reaction. Following the addition of a trace amount of (^3 H)-5-HETE together with an excess of unlabeled 5-HETE to each tube, the mixture is extracted with chloroform/methanol. The organic layer is washed wth dilute acid and an aliquot is transferred to glass tubes and dried. The residue is dissolved in a small volume of chloroform and an aliquot is spotted on silica gel TLC sheets, which are developed with an ethyl acetate/isooctane/water/acetic acid solvent system. The 5-HETE spots are visualized with iodine, cut out and placed in scintillation vials for counting. After adjusting for the extraction efficiency, the amount (pmole) of [^14 C]-5-HETE in each of the tubes is quantitated. The net pmoles of 5-HETE are obtained by subtracting the pmoles of 5-HETE in the tubes containing buffer alone (blank) from the pmoles of 5-HETE in the tubes containing […]. The ability of the test compounds to modulate the activity of this enzyme is determined by a decrease or increase in the net amount of 5-HETE produced.

Test [1] has as its system leukotriene C4-induced contraction of guinea pig peripheral strips. Kind of test: SRS-A antagonists (SALTI): inhibition of leukotriene C4-induced contraction of guinea pig peripheral lung strips. It is filed as cell-based. The conditions noted are these: 0.2 nM leukotriene C4, 37° C.; for IC50: Cavia porcellus, read-out: concentration required for 50% inhibition of leukotriene C4-induced contraction (I50). The method, then:
Peripheral strips of guinea pig lungs are prepared and hung in tissue baths (Metro #ME-5505, 10 ml) according to the published procedure (Pro. Nat'l. Acad. Sci., U.S.A. Volume 77, pp. 4354-4358, 1980). The strips are thoroughly rinsed in Assay Buffer and then connected with surgical silk thread to the support rods from the tissue baths. The rods are adjusted in the baths and the strips connected to the pressure transducers (Grass FT 103 or Gould UC-3--. The tissue baths are aerated with 95% oxygen-5% carbon dioxide and maintained at 37° C. The Assay Buffer has been made as follows:
For each liter of buffer the following are added to approximately 800 ml of water distilled in glass: 6.87 g NaCl, 0.4 g KCl, […] NaHCO3, 0.14 g NaH2 PO4 H2 O, 0.21 g MgSO4 7H2 O, and 2.0 g D-glucose. Tehn a solution of 0.368 g CaCl2 2H2 O in 100 ml glass-distilled water is slowly added to the buffer. Sufficient water is added to adjust the volume to one liter, and the solution is aerated with 95% oxygen--5% carbon dioxide. Usually 10 liters of buffer are used for an experiment with 4 tissues.
After the tissues have been repeatedly washed and allowed to equilibrate in the tissue bath, they are challenged with 1 μM histamine. After maximum contractions have been obtained, the tissues are washed, and allowed to relax back to baseline tension. This histamine challenge procedure is repeated at least 1 to 2 more times ot obtain a repeatable control response. The average response to 1 μM histamine for each tissue is used to normalize all other challenges.
Responses of each tissue to a predetermined concentration of leukotriene are then obtained. Usually test compounds are examined initially at 30 μM on resting tension of the tissues without any added agonist or antagonist to determine if the compound has any possible intrinsic activity. The tissues are washed, and the test compound is added again. Leukotriene is added after the desired pre-incubation time. The intrinsic activity of the compounds and their effect on leukotriene-induced contractions are then recorded.
The concentration required for 50% inhibition of 0.2 nM leukotriene C4 -induced contraction of guinea pig peripheral strips for the compounds of the Examples 1 to 6 is as follows: […]

Each structure is given as a SMILES string.

Turning to `CCCCCC(O)c1ccn(-c2ccccc2)c1` (stereo not shown) [Example 6, 3-(1-Hydroxyhexyl)-1-phenylpyrrole], the “relative activity at 10 μM (5-lipoxygenase inhibition)” value on 5-lipoxygenase is “medium”.

Take `CCCCCC(O)c1ccn(-c2cccc(Oc3ccccc3)c2)c1` (stereo not shown) [Example 4, 3-(1-Hydroxyhexyl)-1-(3-phenoxyphenyl)pyrrole]: the IC50 at 5-lipoxygenase came out at 4 µM.

In the case of `O=Cc1cccn1-c1cccc(Oc2ccccc2)c1` [Example 1, 1-(3-Phenoxyphenyl)-pyrrole-2-aldehyde], the “relative activity at 10 μM (5-lipoxygenase inhibition)” value at 5-lipoxygenase was “medium”. The IC50 in test [1] was found to be 20 µM.

As to `CCCCCC(O)c1cccn1-c1ccccc1` (stereo not shown) [Example 5, 2-(1-Hydroxyhexyl)-1-phenylpyrrole], the IC50 at 5-lipoxygenase was found to be 20 µM. The “concentration required for 50% inhibition of leukotriene C4-induced contraction (I50)” value in test [1] is recorded as “Inactive”.

Consider `CCCCCC(O)c1cccn1-c1cccc(Oc2ccccc2)c1` (stereo not shown) [Example 3, 2-(1-Hydroxyhexyl)-1-(3-phenoxyphenyl)pyrrole], for which the IC50 on 5-lipoxygenase worked out at 7 µM. Moreover, the “concentration required for 50% inhibition of leukotriene C4-induced contraction (I50)” value in test [1] is given as “Inactive”.

Turning to `O=Cc1ccn(-c2cccc(Oc3ccccc3)c2)c1` [Example 2, 1-(3-Phenoxyphenyl)-pyrrole-3-aldehyde], the “relative activity at 10 μM (5-lipoxygenase inhibition)” value at 5-lipoxygenase is on record as “medium”. Besides, in test [1], the IC50 was 18 µM.
